Results taken from patent US9073855B2, “BCL-2 selective apoptosis-inducing agents for the treatment of cancer and immune diseases” (AbbVie Inc., priority 2008, dated 2015).

Legend:
GST-Bcl-XL = GST-Bcl-XL (Homo sapiens, UniProt Q07817); assay: TR-FRET binding assay, GST-Bcl-XL with F-Bak peptide probe; settings: TR-FRET Binding Affinity, GST-Bcl-XL, F-Bak peptide probe
Outline: (§1)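 Competitive TR-FRET: GST-fusion protein, fluorescent Bak peptide probe and Tb-labelled anti-GST antibody incubated with compound dilution series (starting 50 μM as 2× stock, 10% DMSO) for 3 h at RT. Excitation 340/35 nm; Ki derived via Wang's exact competitive-binding equation.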

GST-Bcl-2 = GST-Bcl-2 (Homo sapiens, UniProt P10415); assay: TR-FRET binding assay, GST-Bcl-2 with F-Bak peptide probe; settings: TR-FRET Binding Affinity, GST-Bcl-2, F-Bak peptide probe
Sequence of GST-Bcl-2 (P10415 whole entry): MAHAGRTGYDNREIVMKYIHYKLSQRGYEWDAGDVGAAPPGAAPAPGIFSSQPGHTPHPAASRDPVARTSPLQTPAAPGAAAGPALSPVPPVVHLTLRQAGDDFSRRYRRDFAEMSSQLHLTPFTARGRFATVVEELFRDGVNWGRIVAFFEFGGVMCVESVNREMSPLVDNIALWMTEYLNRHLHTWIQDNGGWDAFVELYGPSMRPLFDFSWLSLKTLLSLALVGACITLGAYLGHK
Outline: as §1

FL5.12/Bcl-2 cells = assay: FL5.12/Bcl-2 cell viability assay under IL-3 withdrawal (CellTitre Glo); type: cell-based, murine; settings: Mus musculus, IL-3 withdrawn 48 hrs, then 24 hrs with compound
Source text: FL5.12 is an IL-3 dependent prolymphocytic murine cell line that undergoes apoptosis upon IL-3 withdrawal as a result of the upregulation of pro-apoptotic Bcl-2 proteins such as Bim and Puma. Stable overexpression of anti-apoptotic Bcl-2 protein (FL5.12/Bcl-2) protects against apoptosis induced by IL-3 withdrawal by sequestration of Bim and Puma. […] The ability of compounds to kill FL5.12/Bcl-2 cells upon IL-3 withdrawal is a direct measure of the compounds' ability to inhibit anti-apoptotic Bcl-2 protein function.
Wild type FL5.12/Bcl-2 overexpressing stable transfectants were cultured in RPMI-1640 supplemented with 2 mM L-glutamine, 10% FBS, 1 mM sodium pyruvate, 2 mM HEPES, 1% penicillin/streptomycin (Invitrogen), 57 μM β-ME, and 10% WEHI-3B conditioned medium (source of IL-3) and maintained at 37° C. containing 5% CO2. 1×10^6 cells/ml were washed 1×PBS and resuspended in medium not supplemented with 10% WEHI-3B for 48 hrs prior to cytotoxicity assays. Cells were then treated for an additional 24 hrs in the presence of various concentrations of the indicated compounds. Cell viability was assessed by CellTitre Glo assay (Promega Corp.) according to the manufacturer's recommendations.

Sequence of GST-Bcl-XL (Q07817 whole entry, the tested form may be a part): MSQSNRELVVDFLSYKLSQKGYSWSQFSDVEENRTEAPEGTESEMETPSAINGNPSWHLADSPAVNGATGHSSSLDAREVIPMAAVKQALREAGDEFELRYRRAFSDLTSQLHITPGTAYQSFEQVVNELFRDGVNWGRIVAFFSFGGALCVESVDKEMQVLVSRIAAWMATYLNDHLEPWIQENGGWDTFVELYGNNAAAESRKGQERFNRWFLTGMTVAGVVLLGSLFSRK

| SMILES | Ki (GST-Bcl-XL) | Ki (GST-Bcl-2) | EC50 (FL5.12/Bcl-2 cells) |
| --- | --- | --- | --- |
| CC1(C)CCC(CN2CCN(c3ccc(C(=O)NS(=O)(=O)c4ccc(NN5CCS(=O)(=O)CC5)c([N+](=O)[O-])c4)c(Oc4ccc5[nH]ccc5c4)c3)CC2)=C(c2ccc(Cl)cc2)C1 [Example 362, 4-(4-{[2-(4-chlorophenyl)-4,4-dimethylcyclohex-1-en-1-yl]methyl}piperazin-1-yl)-N-({4-[(1,1-dioxidothiomorpholin-4-yl)amino]-3-nitrophenyl}sulfonyl)-2-(1H-indol-5-yloxy)benzamide] | 290 nM | 0.082 nM | 171 nM |
| CN(C)CC#Cc1ccc(-c2ccc(Cl)cc2)c(CN2CCN(c3ccc(C(=O)NS(=O)(=O)c4ccc(NCC5CCOCC5)c([N+](=O)[O-])c4)c(Oc4cccc5[nH]ccc45)c3)CC2)c1 [Example 209, 4-[4-({4′-chloro-4-[3-(dimethylamino)prop-1-ynyl]-1,1′-biphenyl-2-yl}methyl)piperazin-1-yl]-2-(1H-indol-4-yloxy)-N-({3-nitro-4-[(tetrahydro-2H-pyran-4-ylmethyl)amino]phenyl}sulfonyl)benzamide] | > 660 nM | 0.267 nM | 139 nM |
| CC1(C)CCC(CN2CCN(c3ccc(C(=O)NS(=O)(=O)c4ccc(NCCc5ccc(S(N)(=O)=O)cc5)c([N+](=O)[O-])c4)c(Oc4ccc5[nH]ccc5c4)c3)CC2)=C(c2ccc(Cl)cc2)C1 [Example 376, N-{[4-({2-[4-(aminosulfonyl)phenyl]ethyl}amino)-3-nitrophenyl]sulfonyl}-4-(4-{[2-(4-chlorophenyl)-4,4-dimethylcyclohex-1-en-1-yl]methyl}piperazin-1-yl)-2-(1H-indol-5-yloxy)benzamide] | > 660 nM | 22.4 nM | > 500 nM |
| CC(=O)N1CCC(Nc2ccc(S(=O)(=O)NC(=O)c3ccc(N4CCN(CC5=C(c6ccc(Cl)cc6)CC(C)(C)CC5)CC4)cc3Oc3cccc4[nH]ccc34)cc2[N+](=O)[O-])CC1 [Example 337, N-({4-[(1-acetylpiperidin-4-yl)amino]-3-nitrophenyl}sulfonyl)-4-(4-{[2-(4-chlorophenyl)-4,4-dimethylcyclohex-1-en-1-yl]methyl}piperazin-1-yl)-2-(1H-indol-4-yloxy)benzamide] | > 660 nM | 0.535 nM | 124 nM |
| CC1(C)CCC(CN2CCN(c3ccc(C(=O)NS(=O)(=O)c4ccc(OC[C@@H]5COCCO5)c([N+](=O)[O-])c4)c(Oc4ccc5[nH]ccc5c4)c3)CC2)=C(c2ccc(Cl)cc2)C1 [Example 347, 4-(4-{[2-(4-chlorophenyl)-4,4-dimethylcyclohex-1-en-1-yl]methyl}piperazin-1-yl)-N-({4-[(2S)-1,4-dioxan-2-ylmethoxy]-3-nitrophenyl}sulfonyl)-2-(1H-indol-5-yloxy)benzamide] | 306 nM | 0.243 nM | 46.8 nM |
| CC1(C)CCC(CN2CCN(c3ccc(C(=O)NS(=O)(=O)c4ccc(NC5CCN(CCO)CC5)c([N+](=O)[O-])c4)c(Oc4cccc5[nH]ccc45)c3)CC2)=C(c2ccc(Cl)cc2)C1 [Example 191, 4-(4-{[2-(4-chlorophenyl)-4,4-dimethylcyclohex-1-en-1-yl]methyl}piperazin-1-yl)-N-[(4-{[1-(2-hydroxyethyl)piperidin-4-yl]amino}-3-nitrophenyl)sulfonyl]-2-(1H-indol-4-yloxy)benzamide] | 9.16 nM | 0.073 nM | 11.7 nM |
| CNc1ccc(S(=O)(=O)NC(=O)c2ccc(N3CCN(CC4=C(c5ccc(Cl)cc5)CC(C)(C)CC4)CC3)cc2Oc2cccc3[nH]ccc23)cc1[N+](=O)[O-] [Example 246, 4-(4-{[2-(4-chlorophenyl)-4,4-dimethylcyclohex-1-en-1-yl]methyl}piperazin-1-yl)-2-(1H-indol-4-yloxy)-N-{[4-(methylamino)-3-nitrophenyl]sulfonyl}benzamide] | 384 nM | 0.783 nM | 48 nM |
